In brackets after ≈: the same amount, converted by molar mass. Activity calls are given as the source filed them. No cut-off for these calls is given here. Where a SMILES comes first, the peptide text is derived from it. Bridges are numbered along the chain shown (N, C = ends).
Key:
Staphylococcus aureus [1] = test: Antibacterial activity against methicillin-resistant Staphylococcus aureus SAP0017 measured after overnight incubation by microtitre plate based spectrophotometric method; type: functional
Staphylococcus aureus [2] = test: Antibacterial activity against methicillin-resistant Staphylococcus aureus USA300 LAC measured after overnight incubation by microtitre plate based spectrophotometric method; type: functional
Pseudomonas aeruginosa [3] = test: Antibacterial activity against Pseudomonas aeruginosa PA14 measured after overnight incubation by microtitre plate based spectrophotometric method; type: functional
Pseudomonas aeruginosa [4] = test: Antibacterial activity against Pseudomonas aeruginosa PAO1 measured after overnight incubation by microtitre plate based spectrophotometric method; type: functional
Escherichia coli [5] = test: Antibacterial activity against Escherichia coli ATTC 489 measured after overnight incubation by microtitre plate based spectrophotometric method; type: functional
Acinetobacter baumannii [6] = test: Antibacterial activity against Acinetobacter baumannii 5015 measured after overnight incubation by microtitre plate based spectrophotometric method; type: functional
Acinetobacter baumannii [7] = test: Antibacterial activity against Acinetobacter baumannii 17918 measured after overnight incubation by microtitre plate based spectrophotometric method; type: functional
Klebsiella pneumoniae [8] = test: Antibacterial activity against Klebsiella pneumoniae ATTC 13883 measured after overnight incubation by microtitre plate based spectrophotometric method; type: functional
Staphylococcus aureus [9] = test: Antibiofilm activity against methicillin-resistant Staphylococcus aureus SAP0017 incubated for 24 hrs under shaking condition by turbidometric method; type: functional
Staphylococcus aureus [10] = test: Antibiofilm activity against methicillin-resistant Staphylococcus aureus USA300 LAC incubated for 24 hrs under shaking condition by turbidometric method; type: functional
Pseudomonas aeruginosa [11] = test: Antibiofilm activity against Pseudomonas aeruginosa PA14 incubated for 24 hrs under shaking condition by turbidometric method; type: functional
Pseudomonas aeruginosa [12] = test: Antibiofilm activity against Pseudomonas aeruginosa PAO1 incubated for 24 hrs under shaking condition by turbidometric method; type: functional
Escherichia coli [13] = test: Antibiofilm activity against Escherichia coli ATTC 489 incubated for 24 hrs under shaking condition by turbidometric method; type: functional
Acinetobacter baumannii [14] = test: Antibiofilm activity against Acinetobacter baumannii 5015 incubated for 24 hrs under shaking condition by turbidometric method; type: functional
Acinetobacter baumannii [15] = test: Antibiofilm activity against Acinetobacter baumannii 17918 incubated for 24 hrs under shaking condition by turbidometric method; type: functional
Klebsiella pneumoniae [16] = test: Antibiofilm activity against Klebsiella pneumoniae ATTC 13883 incubated for 24 hrs under shaking condition by turbidometric method; type: functional
Staphylococcus aureus [17] = test: Antibiofilm activity against methicillin-resistant Staphylococcus aureus SAP0017 assessed as reduction in biofilm biomass incubated overnight by crystal violet staining assay; type: functional
Staphylococcus aureus [18] = test: Antibiofilm activity against methicillin-resistant Staphylococcus aureus USA300 LAC assessed as reduction in biofilm biomass measured after overnight incubation by crystal violet staining assay; type: functional
Pseudomonas aeruginosa [19] = test: Antibiofilm activity against 24 hrs preformed Pseudomonas aeruginosa PA14 biofilm assessed as reduction in biofilm viability at 7.2 to 30.3 uM by TTC assay relative to control; type: functional; conditions: dose microM 7.2-30.3
Pseudomonas aeruginosa [20] = test: Antibiofilm activity against 24 hrs preformed Pseudomonas aeruginosa PAO1 biofilm assessed as reduction in biofilm viability at 7.2 to 30.3 uM by TTC assay relative to control; type: functional; conditions: dose microM 7.2-30.3
Escherichia coli [21] = test: Antibiofilm activity against 24 hrs preformed Escherichia coli ATTC 489 biofilm assessed as reduction in biofilm viability at 7.2 to 30.3 uM by TTC assay relative to control; type: functional; conditions: dose microM 7.2-30.3
Acinetobacter baumannii [22] = test: Antibiofilm activity against 24 hrs preformed Acinetobacter baumannii 5015 biofilm assessed as reduction in biofilm viability at 7.2 to 30.3 uM by TTC assay relative to control; type: functional; conditions: dose microM 7.2-30.3
Acinetobacter baumannii [23] = test: Antibiofilm activity against 24 hrs preformed Acinetobacter baumannii 17918 biofilm assessed as reduction in biofilm viability at 7.2 to 30.3 uM by TTC assay relative to control; type: functional; conditions: dose microM 7.2-30.3
Klebsiella pneumoniae [24] = test: Antibiofilm activity against 24 hrs preformed Klebsiella pneumoniae ATTC 13883 biofilm assessed as reduction in biofilm viability at 7.2 to 30.3 uM by TTC assay relative to control; type: functional; conditions: dose microM 7.2-30.3
Trypsin = Trypsin (Homo sapiens, UniProt P07477+P07478+P35030); test: Stability of the compound in pH 8.2 ammonium bicarbonate buffer assessed as trypsin (unknown origin)-mediated drug degradation at 20 ug/ml measured after 120 mins by RP-HPLC analysis; type: ADME, protein assay; conditions: trypsin in ammonium bicarbonate buffer, pH 8.2, at 20 µg/mL, read-out: Drug degradation
[25] = Aggregation property of the compound in water at 1 mg/ml by turbidimetric method; type: physicochemical; conditions: buffer
[26] = Aggregation property of the compound in saline at 1 mg/ml by turbidimetric method; type: physicochemical; conditions: buffer
[27] = Aggregation property of the compound in 5% dextrose at 1 mg/ml by turbidimetric method; type: physicochemical
[28] = Aggregation property of the compound in RPMI medium with 1% FBS at 1 mg/ml by turbidimetric method; type: physicochemical
[29] = Aggregation property of the compound in sodium citrate solution at 10 mM by turbidimetric method; type: physicochemical; conditions: 10000 µM
[30] = Aggregation property of the compound in sodium phosphate solution at 10 mM by turbidimetric method; type: physicochemical; conditions: 10000 µM
[31] = Aggregation property of the compound in sodium nitrate solution at 10 mM by turbidimetric method; type: physicochemical; conditions: 10000 µM
[32] = Aggregation of the compound in human PBMC assessed as amorphous morphology at 50 ug/ml measured after 4 hrs by microscopic analysis; type: ADME, tissue-based; conditions: dose 50 µg/ml
[33] = Cytotoxicity against human PBMC assessed as reduction in cell viability at 100 ug/ml measured after 24 hrs by LDH assay; type: tissue-based; conditions: dose 100 µg/ml
PBMC [34] = test: Immunomodulatory activity in human PBMC assessed as increase in MCP1 production at 25 ug/ml measured after overnight incubation by ELISA; type: functional, tissue-based; conditions: dose 25.0 µg/ml
PBMC [35] = test: Immunomodulatory activity in human PBMC assessed as change in TNFalpha production at 25 ug/ml measured after overnight incubation by ELISA; type: functional, tissue-based; conditions: dose 25.0 µg/ml
PBMC [36] = test: Immunomodulatory activity in human PBMC assessed as increase in IL-1RA production at 25 ug/ml measured after overnight incubation by ELISA; type: functional, tissue-based; conditions: dose 25.0 µg/ml
PBMC [37] = test: Immunomodulatory activity in human PBMC assessed as reduction in LPS-induced TNFalpha production at 25 ug/ml measured after overnight incubation by ELISA; type: functional, tissue-based; conditions: dose 25.0 µg/ml
[38] = Immunomodulatory activity in human PBMC assessed as increase in LPS-induced MCP1 production at 25 ug/ml measured after overnight incubation by ELISA; type: functional; conditions: dose 25 µg/ml
[39] = Immunomodulatory activity in human PBMC assessed as increase in LPS-induced IL10 production at 25 ug/ml measured after overnight incubation by ELISA; type: functional; conditions: dose 25 µg/ml
[40] = Immunomodulatory activity in human PBMC assessed as increase in LPS-induced IL1RA production at 25 ug/ml measured after overnight incubation by ELISA; type: functional; conditions: dose 25 µg/ml
[41] = Toxicity in CD1 mouse assessed as redness under the skin at 10 mg/kg, sc measured after 16 hrs; type: organism-based; conditions: in vivo
Staphylococcus aureus [42] = test: Antibacterial activity against Staphylococcus aureus USA300 LAC infected in CD1 mouse assessed as reduction in dermonecrosis at 7.5 mg/kg, sc administered at infection site measured after 3 days by caliper method relative to control; type: functional; parameters: scale not given: the % may be the effect or the level left; conditions: time 3 day
Staphylococcus aureus [43] = test: Antibacterial activity against Staphylococcus aureus USA300 LAC infected in CD1 mouse assessed as dermonecrosis area at 7.5 mg/kg, sc administered at infection site measured after 3 days by caliper method (Rvb > 75 mm2); type: functional; conditions: time 3 day
Staphylococcus aureus [44] = test: Antibacterial activity against Staphylococcus aureus USA300 LAC infected in CD1 mouse assessed as reduction in bacterial load at 7.5 mg/kg, sc administered at infection site measured after 3 days by colony counting method relative to control; type: functional; conditions: time 3 day

With `CC[C@H](C)[C@@H]1NC(=O)[C@H](CCCNC(=N)N)NC(=O)[C@H](C(C)C)NC(=O)[C@H](C)NC(=O)[C@H](C(C)C)NC(=O)[C@H]([C@@H](C)CC)NC(=O)[C@H](CC(C)C)NC(=O)[C@H](CCCNC(=N)N)NC(=O)[C@H](C(C)C)NC(=O)CC[C@@H](C(N)=O)NC(=O)[C@H](CCCNC(=N)N)NC(=O)[C@H](CCCNC(=N)N)NC(=O)[C@H](Cc2c[nH]c3ccccc23)NC1=O` (VRLIVAVRIWRRE-NH2; lactam N-13) as the compound, how does the MIC (Staphylococcus aureus [1]) read?
The MIC was 15.1 µM (≈ 24.9 µg/mL).

What about the MIC (Staphylococcus aureus [2]) of the same compound?
Its MIC is 15.1 µM (≈ 24.9 µg/mL).

And the MIC (Pseudomonas aeruginosa [3])?
Its MIC is 30.3 µM (≈ 49.9 µg/mL).

And the MIC (Pseudomonas aeruginosa [4])?
Its MIC is 30.3 µM (≈ 49.9 µg/mL).

What about the MIC (Escherichia coli [5]) of the same compound?
Its MIC is 30.3 µM (≈ 49.9 µg/mL).

What about the MIC (Acinetobacter baumannii [6]) of the same compound?
The MIC was 15.1 µM (≈ 24.9 µg/mL).

What about the MIC (Acinetobacter baumannii [7]) of the same compound?
Its MIC is 15.1 µM (≈ 24.9 µg/mL).

And the MIC (Klebsiella pneumoniae [8])?
The MIC was 15.1 µM (≈ 24.9 µg/mL).

And the MBEC (Staphylococcus aureus [9])?
The MBEC was 9.7 µM.

What about the MBEC (Staphylococcus aureus [10]) of the same compound?
The MBEC was 7.2 µM.

What about the MBEC (Pseudomonas aeruginosa [11]) of the same compound?
The MBEC was 38.8 µM.

What about the MBEC (Pseudomonas aeruginosa [12]) of the same compound?
The MBEC was 38.8 µM.

And the MBEC (Escherichia coli [13])?
The MBEC was 38.8 µM.

What about the MBEC (Acinetobacter baumannii [14]) of the same compound?
Its MBEC is 15.1 µM.

What about the MBEC (Acinetobacter baumannii [15]) of the same compound?
The MBEC was 15.1 µM.

What about the MBEC (Klebsiella pneumoniae [16]) of the same compound?
Its MBEC is 9.7 µM.

And the MBIC (Staphylococcus aureus [17])?
Its MBIC is 7.2 µM.

What about the MBIC (Staphylococcus aureus [18]) of the same compound?
The MBIC was 7.2 µM.

What about the Activity (Pseudomonas aeruginosa [19]) of the same compound?
Its Activity is 70%.

And the Activity (Pseudomonas aeruginosa [20])?
Its Activity is 70%.

And the Activity (Escherichia coli [21])?
The Activity was 70%.

What about the Activity (Acinetobacter baumannii [22]) of the same compound?
The Activity was 70%.

What about the Activity (Acinetobacter baumannii [23]) of the same compound?
The Activity was 70%.

What about the Activity (Klebsiella pneumoniae [24]) of the same compound?
Its Activity is 70%.

And the metabolised at 2 h, 20 ug/ml (Trypsin)?
Its metabolised at 2 h, 20 ug/ml is 30%.

And the Activity [25]?
Its Activity is “Not Active”.

And the Activity [26]?
The Activity was “Not Active”.

And the Activity [27]?
Its Activity is “Not Active”.

And the Activity [28]?
Its Activity is “Active”.

And the Activity [29]?
Its Activity is “Not Active”.

And the Activity [30]?
The Activity was “Not Active”.

And the Activity [31]?
Its Activity is “Not Active”.

And the Activity [32]?
The Activity was “Not Active”.

What about the Activity [33] of the same compound?
Its Activity is “Toxic”.

And the Activity (PBMC [34])?
The Activity was “Active”.

And the Activity (PBMC [35])?
Its Activity is “inactive”.

And the Activity (PBMC [36])?
Its Activity is “Active”.

And the Activity (PBMC [37])?
Its Activity is “Active”.

What about the Activity [38] of the same compound?
The Activity was 35%.

What about the Activity [39] of the same compound?
The Activity was 30%.

What about the Activity [40] of the same compound?
Its Activity is 35%.

And the Activity [41]?
The Activity was “Toxic”.

And the Activity (Staphylococcus aureus [42])?
Its Activity is 90%.

And the Activity (Staphylococcus aureus [43])?
The Activity was 5 mm2.

What about the “fold change (FC)” value (Staphylococcus aureus [44]) of the same compound?
The value was 1000.
